# Measurements reported in patent publication US6858640B2, “Tricyclic indole compounds having affinity for serotonin receptor” (Shionogi & Co., Ltd., priority 2000, dated 2005).
# Structures can show the parent of a compound that is named as a salt. Where two headings read alike, the source gives them in different places.
# Assays:
# [1] = biological target: T1, 5HT1A (Rattus norvegicus, UniProt P19327); test: radioligand binding to serotonin receptor, cell membrane sample, Ki by Cheng-Prusoff
# T1 construct: prepared from brain of rats or HEK293 cells, which expressed the receptor; from tissue; host or cells: rat brain membranes
# T1 sequence (P19327 1-422): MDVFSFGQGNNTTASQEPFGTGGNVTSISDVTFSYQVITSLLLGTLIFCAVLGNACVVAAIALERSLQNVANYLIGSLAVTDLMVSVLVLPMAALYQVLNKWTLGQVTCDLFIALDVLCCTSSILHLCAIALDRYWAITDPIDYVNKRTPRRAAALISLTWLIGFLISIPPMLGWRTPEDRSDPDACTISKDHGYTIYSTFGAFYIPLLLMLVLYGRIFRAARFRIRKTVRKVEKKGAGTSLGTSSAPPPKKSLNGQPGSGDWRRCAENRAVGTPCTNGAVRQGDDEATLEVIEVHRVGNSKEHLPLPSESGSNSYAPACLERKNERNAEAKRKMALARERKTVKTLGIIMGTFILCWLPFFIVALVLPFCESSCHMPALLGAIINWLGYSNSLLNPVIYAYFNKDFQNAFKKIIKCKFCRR
# Description: (§1) A mixture of radioactive ligands and some cardinal numbers of test compounds was incubated with a sample of cell membrane, which was prepared from brain of rats or HEK293 cells, which expressed the receptor, under the following conditions. Then, the sample was filtered by suction on a Whatman GF/C. Radioactivity on the filter was encountered by the use of a liquid scintillation counter. 50% Inhibitory concentration values (IC50 values) of each selective binding were calculated for test compounds and the Ki value was obtained by applying an equation of Cheng-Prusoff [Biochem. Pharmacol. 22 (1973) 3099-3108] Ki=IC50/(1+[L]/Kd).
# [2] = biological target: T2, 5HT6 (Homo sapiens, UniProt P50406); test: as above
# T2 construct: expressed in transfected cells; host or cells: HEK293
# Description: as §1
# [3] = rat hippocampus membranes, 1 nM [3H] 8-OH-DPAT, 25° C. 30 min, read-out: Ki value (nM) ±SE 5-HT1A
# [4] = rat 5-HT6 (HEK293), 8 nM [3H] 5HT 25° C. 120 min or 4 nM [3H] LSD 37° C. 60 min, read-out: Ki value (nM) ±SE 5-HT6
# T2 sequence (P50406 whole entry, species assumed): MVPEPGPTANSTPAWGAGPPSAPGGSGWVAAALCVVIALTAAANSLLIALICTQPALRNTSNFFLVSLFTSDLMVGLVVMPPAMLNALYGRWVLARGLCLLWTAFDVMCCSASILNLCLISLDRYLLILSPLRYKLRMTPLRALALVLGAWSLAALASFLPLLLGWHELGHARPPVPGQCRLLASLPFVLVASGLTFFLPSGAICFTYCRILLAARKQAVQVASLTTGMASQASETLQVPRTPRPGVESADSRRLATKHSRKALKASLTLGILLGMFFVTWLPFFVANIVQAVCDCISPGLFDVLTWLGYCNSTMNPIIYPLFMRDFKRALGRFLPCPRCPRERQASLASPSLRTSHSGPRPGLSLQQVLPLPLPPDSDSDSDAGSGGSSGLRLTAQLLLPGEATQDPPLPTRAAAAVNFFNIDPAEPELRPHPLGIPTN
Structure (SMILES),melting point,Ki [2],also measured
N[C@@H]1COc2cccc3[nH]cc(c23)C1,202 to 203 °C,,
c1cc2c3c(c[nH]c3c1)CC1(CO2)OCCO1,200 to 202 °C,,
OC1COc2cccc3[nH]cc(c23)C1 (stereo not shown),169 to 170 °C,,
CNC1COc2cccc3[nH]cc(c23)C1 (stereo not shown) (as salt: oxalate) [Compound 19-2],112 to 116 °C,,
CN(C)C1COc2cccc3c2c(cn3S(=O)(=O)c2ccc(Cl)cc2)C1 (stereo not shown) (as salt: oxalate) [Compound 20-6],114 to 118 °C (dec.),,
CN(C)C1COc2cccc3c2c(cn3S(=O)(=O)c2cccs2)C1 (stereo not shown) (as salt: oxalate) [Compound 20-9],142 to 144 °C (dec.),,
CN(C)C1COc2cccc3c2c(cn3S(=O)(=O)c2ccc(C(F)(F)F)cc2)C1 (stereo not shown) (as salt: oxalate) [Compound 20-10],119 to 122 °C (dec.),,
CN(C)C1COc2cccc3c2c(cn3S(=O)(=O)c2ccc(Br)cc2)C1 (stereo not shown) (as salt: oxalate) [Compound 20-11],147 to 150 °C (dec.),,
CN(C)C1COc2cccc3c2c(cn3S(=O)(=O)c2cccc(Br)c2)C1 (stereo not shown) (as salt: oxalate) [Compound 20-12],168 to 171 °C (dec.),,
CN(C)C1COc2cccc3c2c(cn3S(=O)(=O)c2ccccc2Br)C1 (stereo not shown) (as salt: oxalate) [Compound 20-13],173 to 176 °C (dec.),,
COc1ccc(S(=O)(=O)n2cc3c4c(cccc42)OCC(N(C)C)C3)cc1 (stereo not shown) (as salt: oxalate) [Compound 20-14],140 to 142 °C (dec.),,
COc1ccc(S(=O)(=O)n2cc3c4c(cccc42)OCC(N(C)C)C3)cc1OC (stereo not shown) (as salt: oxalate) [Compound 20-15],123 to 126 °C (dec.),,
CN(C)C1COc2cccc3c2c(cn3S(=O)(=O)/C=C/c2ccccc2)C1 (stereo not shown) (as salt: oxalate) [Compound 20-16],169 to 171 °C (dec.),,
CN(C)C1COc2cccc3c2c(cn3S(=O)(=O)c2cc(Cl)ccc2Cl)C1 (stereo not shown) (as salt: oxalate) [Compound 20-17],161 to 163 °C (dec.),,
CN(C)C1COc2cccc3c2c(cn3S(=O)(=O)c2ccc(F)cc2)C1 (stereo not shown) (as salt: oxalate) [Compound 20-19],143 to 144 °C (dec.),,
CN(C)C1COc2cccc3c2c(cn3S(=O)(=O)c2cc(F)c(Br)cc2F)C1 (stereo not shown) (as salt: oxalate) [Compound 20-20],128 to 131 °C (dec.),,
CN(C)C1COc2cccc3c2c(cn3S(=O)(=O)c2ccc(Cl)s2)C1 (stereo not shown) (as salt: oxalate) [Compound 20-21],154 to 156 °C (dec.),,
CN(C)C1COc2cccc3c2c(cn3S(=O)(=O)c2ccc(F)cc2F)C1 (stereo not shown) (as salt: oxalate) [Compound 20-22],163 to 164 °C (dec.),,
COc1ccc(OC)c(S(=O)(=O)n2cc3c4c(cccc42)OCC(N(C)C)C3)c1 (stereo not shown) (as salt: oxalate) [Compound 20-23],147 to 150 °C (dec.),,

Structure (SMILES),melting point,Ki [2],also measured
CN(C)C1COc2cccc3c2c(cn3S(=O)(=O)c2ccc(-c3ccon3)s2)C1 (stereo not shown) (as salt: oxalate) [Compound 20-25],113 to 115 °C (dec.),,
CNC1COc2cccc3c2c(cn3S(=O)(=O)c2ccccc2)C1 (stereo not shown) (as salt: oxalate) [Compound 36-2],208 to 213 °C (dec.),,
"NC1COc2cccc3[nH]cc(c23)C1 (stereo not shown) [Compound 8-1, 2,7,8,9-Tetrahydro-6-oxa-2-azabenzo[c,d]azulen-8-ylamine]",172 to 173 °C,,"Ki [1, 3]: 36 nM"
"CN(C)C1CC(=O)c2cccc3[nH]cc(c23)C1 (stereo not shown) [Compound 19-1, Dimethyl-(2,7,8,9-tetrahydro-6-oxo-2-azabenzo[cd]azulen-8-yl)amine]",,,"Ki [1, 3]: 81 nM"
CNC1COc2cccc3[nH]cc(c23)C1 (stereo not shown) [Compound 19-2],,97 nM,Ki [1]: 23 nM
CCCN(CCC)C1COc2cccc3[nH]cc(c23)C1 (stereo not shown) [Compound 19-5],60 to 61 °C,,Ki [1]: 10 nM
C=CCNC1COc2cccc3[nH]cc(c23)C1 (stereo not shown) [Compound 19-7],112 to 113 °C,,Ki [1]: 19 nM
c1cc2c3c(c[nH]c3c1)CC(N1CCCC1)CO2 (stereo not shown) [Compound 19-10],137 to 139 °C,,Ki [1]: 2.5 nM
c1cc2c3c(c[nH]c3c1)CC(NC1CC1)CO2 (stereo not shown) [Compound 19-19],130 to 131 °C,,Ki [1]: 3.8 nM
"CN(C)C1CC(=O)c2cccc3c2c(cn3S(=O)(=O)c2ccccc2)C1 (stereo not shown) [Compound 20-1, (2-Benzenesulfonyl-2,7,8,9-tetrahydro-6-oxo-2-azabenzo[cd]azulen-8-yl)dimethylamine oxalate]",,1.7 nM,
CN(C)C1COc2cccc3c2c(cn3S(=O)(=O)c2cccc3ccccc23)C1 (stereo not shown) [Compound 20-5],148 to 149 °C,0.49 nM,
CN(C)C1COc2cccc3c2c(cn3S(=O)(=O)c2ccc(Cl)cc2)C1 (stereo not shown) [Compound 20-6],,,"Ki [2, 4]: 2.7 nM"
CN(C)C1COc2cccc3c2c(cn3S(=O)(=O)c2cccs2)C1 (stereo not shown) [Compound 20-9],,78 nM,Ki [1]: 86 nM
CN(C)C1COc2cccc3c2c(cn3S(=O)(=O)c2ccc(C(F)(F)F)cc2)C1 (stereo not shown) [Compound 20-10],,45 nM,Ki [1]: 95 nM
CN(C)C1COc2cccc3c2c(cn3S(=O)(=O)c2ccc(Br)cc2)C1 (stereo not shown) [Compound 20-11],,5.7 nM,
CN(C)C1COc2cccc3c2c(cn3S(=O)(=O)c2cccc(Br)c2)C1 (stereo not shown) [Compound 20-12],,2.7 nM,
CN(C)C1COc2cccc3c2c(cn3S(=O)(=O)c2ccccc2Br)C1 (stereo not shown) [Compound 20-13],,3.9 nM,
COc1ccc(S(=O)(=O)n2cc3c4c(cccc42)OCC(N(C)C)C3)cc1 (stereo not shown) [Compound 20-14],,22 nM,
COc1ccc(S(=O)(=O)n2cc3c4c(cccc42)OCC(N(C)C)C3)cc1OC (stereo not shown) [Compound 20-15],,,"Ki [2, 4]: 29 nM"

Structure (SMILES),melting point,Ki [2],also measured
CN(C)C1COc2cccc3c2c(cn3S(=O)(=O)/C=C/c2ccccc2)C1 (stereo not shown) [Compound 20-16],,22 nM,
CN(C)C1COc2cccc3c2c(cn3S(=O)(=O)c2cc(Cl)ccc2Cl)C1 (stereo not shown) [Compound 20-17],,29 nM,
CN(C)C1COc2c(Br)ccc3c2c(cn3S(=O)(=O)c2ccccc2)C1 (stereo not shown) [Compound 20-18],89 to 90 °C,22 nM,
CN(C)C1COc2cccc3c2c(cn3S(=O)(=O)c2ccc(F)cc2)C1 (stereo not shown) [Compound 20-19],,12 nM,
CN(C)C1COc2cccc3c2c(cn3S(=O)(=O)c2cc(F)c(Br)cc2F)C1 (stereo not shown) [Compound 20-20],,,"Ki [2, 4]: 11 nM"
CN(C)C1COc2cccc3c2c(cn3S(=O)(=O)c2ccc(Cl)s2)C1 (stereo not shown) [Compound 20-21],,,"Ki [2, 4]: 2.7 nM"
CN(C)C1COc2cccc3c2c(cn3S(=O)(=O)c2ccc(F)cc2F)C1 (stereo not shown) [Compound 20-22],,,"Ki [2, 4]: 26 nM"
COc1ccc(OC)c(S(=O)(=O)n2cc3c4c(cccc42)OCC(N(C)C)C3)c1 (stereo not shown) [Compound 20-23],,,"Ki [2, 4]: 9.9 nM"
COc1cccc(S(=O)(=O)n2cc3c4c(cccc42)OCC(N(C)C)C3)c1 (stereo not shown) [Compound 20-24],103 to 104 °C,3.2 nM,
CN(C)C1COc2cccc3c2c(cn3S(=O)(=O)c2ccc(-c3ccon3)s2)C1 (stereo not shown) [Compound 20-25],,,"Ki [2, 4]: 36 nM"
"CN(C)C1COc2cccc3[nH]c(Br)c(c23)C1 (stereo not shown) [Compound 21, (1-Bromo-2,7,8,9-tetrahydro-6-oxa-2-azabenzo[cd]azulen-8-yl)dimethylamine]",170 to 172 °C,,"Ki [1, 3]: 14 nM"
"O=S(=O)(c1ccccc1)n1cc2c3c(cccc31)OCC(N1CCCC1)C2 (stereo not shown) [Compound 36-1, 2-Benzenesulfonyl-8-pyrrolidin-1-yl-2,7,8,9-tetrahydro-6-oxa-2-azabenzo[cd]azulene]",,65 nM,"Ki [1, 3]: 29 nM"
CNC1COc2cccc3c2c(cn3S(=O)(=O)c2ccccc2)C1 (stereo not shown) [Compound 36-2],,8.5 nM,
"CCc1ccc2[nH]cc3c2c1OCC(N(C)C)C3 (stereo not shown) [Compound 41, (5-Ethyl-2,7,8,9-tetrahydro-6-oxa-2-azabenzo[cd]azulen-8-yl)dimethylamine]",,,"Ki [1, 3]: 57 nM"
"CN(C)C1COc2c(C=O)ccc3[nH]cc(c23)C1 (stereo not shown) [Compound 46-1, 8-Dimethylamino-2,7,8,9-tetrahydro-6-oxa-2-azabenzo[cd]-azulene-5-carbaldehyde]",,28 nM,
CSc1ccc2[nH]cc3c2c1OCC(N(C)C)C3 (stereo not shown) [Compound 46-3],112 to 113 °C,,Ki [1]: 18 nM
"CN(C)C1COc2c(C=NO)ccc3[nH]cc(c23)C1 (stereo not shown) [Compound 47, 8-Dimethylamino-2,7,8,9-tetrahydro-6-oxa-2-azabenzo[cd]-azulene-5-carbaldehyde Oxime]",,78 nM,
"CN(C)C1COc2c(C#N)ccc3[nH]cc(c23)C1 (stereo not shown) [Compound 48, 8-Dimethylamino-2,7,8,9-tetrahydro-6-oxa-2-azabenzo[cd]-azulene-5-carbonitrile]",,1 nM,
